The target in the assay is TNFα (Homo sapiens, UniProt P01375). In words: TNF induced HEK-Blue assay (NF-kB-driven secreted alkaline phosphatase reporter). It counts as cell-based. Conditions: TNFα 0.5 ng/mL, HEK-Blue-CD40L cells, 18 h. How it is done: TNF or CD40L-Induced HEK-Blue Assay
Test compounds serially diluted in DMSO were plated in an assay plate (LABCYTE, Cat. # LP-0200) at final concentrations ranging from 0.004 μM to 25 μM. TNFα (final concentration 0.5 ng/mL) or CD40L (final concentration 30 ng/mL) in assay buffer [DMEM, 4.5 g/l glucose (Gibco, Cat. 21063-029), 10% FBS (Sigma, F4135), 1% Penicillin-Streptomycin (Gibco, Cat. 15140-122), 1% Anti-Anti (Gibco, Cat. 15240-112) and 2 mM L-glutamine (Gibco, Cat. 25030-081)] was then added to the assay plate. After a 30 minute pre-incubation at 37° C. and 5% CO2, HEK-Blue™-CD40L cells (INVIVOGEN, Cat. Code hkb-cd40) containing a NF-kB-driven secreted alkaline phosphatase reporter gene were seeded into the assay plate at a density of 20,000 cells per well. This plate was then incubated for 18 h at 37° C. and 5% CO2. Secreted alkaline phosphatase expression was measured using QUANTI-Blue™ (INVIVOGEN, Cat. Code rep-qb1) according to manufacturer's specifications and the assay plate was read on a PerkinElmer Envision at 620 nm.
Inhibition data for the test compound over a range of concentrations was plotted as percentage inhibition of the test compound (100%=maximum inhibition). IC50 values were determined after correcting for background [(sample read-mean of low control)/(mean of high control-mean of low control)] where by the low control is DMSO without stimulation and high control is DMSO with stimulation. The IC50 is defined as the concentration of test compound which produces 50% inhibition and was quantified using the 4 parameter logistic equation to fit the data.

[1] abbreviates: read-out: TNF induced HEK-Blue assay IC50 value.
The mark [2] stands for this setting: TNF induced HEK-Blue assay IC50 value.

Read-outs that look alike come from different tables or passages of the source. Where only a bound is given, the exact number is not on record here.

Chain of TNFα (P01375 77-233 limits assumed): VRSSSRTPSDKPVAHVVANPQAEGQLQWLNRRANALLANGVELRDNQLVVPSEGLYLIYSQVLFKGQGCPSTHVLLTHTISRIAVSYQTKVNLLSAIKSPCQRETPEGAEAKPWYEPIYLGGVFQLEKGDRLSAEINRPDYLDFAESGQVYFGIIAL

What is called IC50 is the concentration at which inhibition is half-maximal. Turning to `CNc1ccncc1-c1ccc(F)c([C@@H](C)Nc2c(Cl)cnc3ccccc23)c1` [Example 523, (R)-3-chloro-N-(1-(2-fluoro-5-(4-(methylamino)pyridin-3-yl)phenyl)ethyl)quinolin-4-amine], the half-inhibitory concentration (IC50) under setting [1] was less than 1000 nM.

As to `Cc1ccc(C)c(Nc2c(Cl)c(C(=O)Nc3ccccc3)nc3ccc(-c4ccc(C#N)nc4)cc23)c1` [Example 35, 3-chloro-6-(6-cyanopyridin-3-yl)-4-((2,5-dimethylphenyl)amino)-N-phenylquinoline-2-carboxamide], the IC50 under setting [1] lay within 1000 to 10000 nM.

For the compound `C[C@@H](Nc1c(Cl)cnc2cc(F)c(-c3cnc(C(C)(C)O)nc3)nc12)c1cc(C#N)ccc1F` [Example 590, (R)-3-(1-((3-chloro-7-fluoro-6-(2-(2-hydroxypropan-2-yl)pyrimidin-5-yl)-1,5-naphthyridin-4-yl)amino)ethyl)-4-fluorobenzonitrile], the IC50 under setting [1] was less than 1000 nM.

On to `C[C@@H](Nc1c(Cl)cnc2cc(F)c(-c3cnc(C(C)(C)O)nc3)nc12)c1cccc(C(O)CO)c1` (stereo partly drawn) [Example 573, 1-(3-((R)-1-((3-chloro-7-fluoro-6-(2-(2-hydroxypropan-2-yl)pyrimidin-5-yl)-1,5-naphthyridin-4-yl)amino)ethyl)phenyl)ethane-1,2-diol], for which, under setting [1], the IC50 was less than 1000 nM.

With `Cc1nc2ccc(-c3cnc(N4CCNC(=O)C4)nc3)cc2c(N[C@H](C)c2cc(C(N)=O)ccc2F)c1Cl` [Example 447, (R)-3-(1-((3-chloro-2-methyl-6-(2-(3-oxopiperazin-1-yl)pyrimidin-5-yl)quinolin-4-yl)amino)ethyl)-4-fluorobenzamide], under setting [1], the IC50 was less than 1000 nM.

In the case of `O=C(O)CN1CCN(c2ccc(-c3ccc4ncc(Cl)c(N[C@@H](c5ccccc5F)C(F)F)c4c3)cc2)CC1` [Example 16, (S)-2-(4-(4-(3-chloro-4-((2,2-difluoro-1-(2-fluorophenyl)ethyl)amino)quinolin-6-yl)phenyl)piperazin-1-yl)acetic acid], the IC50 under setting [1] was less than 1000 nM.

As for `Cc1nc2cc(F)c(-c3cnc(C(C)(C)O)nc3)nc2c(N[C@H](C)c2cccc(C(N)=O)c2)c1Cl` [Example 580, (R)-3-(1-((3-chloro-7-fluoro-6-(2-(2-hydroxypropan-2-yl)pyrimidin-5-yl)-2-methyl-1,5-naphthyridin-4-yl)amino)ethyl)benzamide], under setting [1], the half-inhibitory concentration (IC50) was less than 1000 nM.

Consider `CC(Nc1c(Cl)cnc2ccc(-c3cnc(C(C)(C)O)nc3)cc12)c1ccccc1F` (racemic) [Example 152, 2-(5-(3-chloro-4-((1-(2-fluorophenyl)ethyl)amino)quinolin-6-yl)pyrimidin-2-yl)propan-2-ol], for which the IC50 under setting [2] was less than 1000 nM.

As for `C[C@@H](Nc1c(Cl)cnc2ccc(-c3ccc(C4(N)CC4)cc3)cc12)c1ccccc1F` [Example 102, (R)-6-(4-(1-aminocyclopropyl)phenyl)-3-chloro-N-(1-(2-fluorophenyl)ethyl)quinolin-4-amine], the IC50 under setting [1] is less than 1000 nM.

As to `Cc1nc2cc(F)c(-c3cnc(C(C)(C)O)nc3)nc2c(N[C@H](C)c2cc(C#N)ccc2F)c1Cl` [Example 586, (R)-3-(1-((3-chloro-7-fluoro-6-(2-(2-hydroxypropan-2-yl)pyrimidin-5-yl)-2-methyl-1,5-naphthyridin-4-yl)amino)ethyl)-4-fluorobenzonitrile], the IC50 under setting [2] was less than 1000 nM.

Regarding `C[C@@H](Nc1c(Cl)cnc2cc(F)c(-c3cnc(C(C)(C)O)nc3)nc12)c1ccccc1` [Example 193, (R)-2-(5-(7-chloro-3-fluoro-8-((1-phenylethyl)amino)-1,5-naphthyridin-2-yl)pyrimidin-2-yl)propan-2-ol], under setting [1], the IC50 was less than 1000 nM.

Regarding `CC(Nc1ncc(-c2ccc3ncc(Cl)c(N[C@H](C)c4ccccc4F)c3c2)cn1)C(N)=O` (stereo partly drawn) [Example 591, 2-((5-(3-chloro-4-(((R)-1-(2-fluorophenyl)ethyl)amino)quinolin-6-yl)pyrimidin-2-yl)amino)propanamide], the IC50 under setting [1] was less than 1000 nM.

As for `CC(Nc1c(Cl)cnc2ccc(-c3cnc(C(C)(C)O)nc3)cc12)c1cccc(C(F)(F)F)c1` (racemic) [Example 147, 2-(5-(3-chloro-4-((1-(3-(trifluoromethyl)phenyl)ethyl)amino)quinolin-6-yl)pyrimidin-2-yl)propan-2-ol], under setting [1], the IC50 was 1000 to 10000 nM.

As to `Cc1nc2cc(F)c(-c3cnc(C(C)(C)O)nc3)nc2c(N[C@H](C)c2cccc(C(O)CO)c2)c1Cl` (stereo partly drawn) [Example 575, 1-(3-((R)-1-((3-chloro-7-fluoro-6-(2-(2-hydroxypropan-2-yl)pyrimidin-5-yl)-2-methyl-1,5-naphthyridin-4-yl)amino)ethyl)phenyl)ethane-1,2-diol], the IC50 under setting [1] was less than 1000 nM.

Consider `C[C@@H](Nc1c(Cl)cnc2ccc(-c3cnc(N4CCN(Cc5nn[nH]n5)CC4)nc3)cc12)c1ccccc1F` [Example 237, (R)-6-(2-(4-((2H-tetrazol-5-yl)methyl)piperazin-1-yl)pyrimidin-5-yl)-3-chloro-N-(1-(2-fluorophenyl)ethyl)quinolin-4-amine], for which the IC50 under setting [1] is less than 1000 nM.

As to `C[C@H](Nc1c(Cl)cnc2ccc(-c3cnc(C(C)(C)O)nc3)cc12)[C@H]1CCCN(C(N)=O)C1` [Example 103, (S)-3-((S)-1-((3-chloro-6-(2-(2-hydroxypropan-2-yl)pyrimidin-5-yl)quinolin-4-yl)amino)ethyl)piperidine-1-carboxamide], under setting [1], the IC50 fell in the range of 1000 to 10000 nM.

For `C[C@@H](Nc1c(Cl)cnc2ccc(-c3cnc(C4CCN(CC(=O)O)CC4)nc3)cc12)c1ccccc1F` [Example 593, (R)-2-(4-(5-(3-chloro-4-((1-(2-fluorophenyl)ethyl)amino)quinolin-6-yl)pyrimidin-2-yl)piperidin-1-yl)acetic acid], under setting [1], the IC50 lay in the range of 1000 to 10000 nM.

On to `Cc1nc2ccc(-c3cnc(C(C)(C)O)nc3)cc2c(N[C@H](C)c2cc(-c3ccccc3)ccc2F)c1Cl` [Example 331, (R)-2-(5-(3-chloro-4-((1-(4-fluoro-[1,1′-biphenyl]—3-yl)ethyl)amino)-2-methylquinolin-6-yl)pyrimidin-2-yl)propan-2-ol], for which the IC50 under setting [1] was less than 1000 nM.

Turning to `CC(Nc1c(Cl)cnc2cc(F)c(-c3cnc(C(C)(C)O)nc3)cc12)c1ccccc1F` (stereo not drawn) [Example 249, 2-(5-(3-chloro-7-fluoro-4-((1-(2-fluorophenyl)ethyl)amino)quinolin-6-yl)pyrimidin-2-yl)propan-2-ol], the half-inhibitory concentration (IC50) under setting [2] fell in the range of 1000 to 10000 nM.

Under setting [2], `CC(C)C(Nc1c(Cl)cnc2ccc(-c3cnc(C(C)(C)O)nc3)cc12)c1ccccc1F` (stereo not drawn) [Example 189, 2-(5-(3-chloro-4-((1-(2-fluorophenyl)-2-methylpropyl)amino)quinolin-6-yl)pyrimidin-2-yl)propan-2-ol] registered an IC50 of less than 1000 nM.

Take `CC(C)(O)c1ncc(-c2ccc3ncc(Cl)c(NC(CCO)c4ccccc4F)c3c2)cn1` (racemic) [Example 167, 3-((3-chloro-6-(2-(2-hydroxypropan-2-yl)pyrimidin-5-yl)quinolin-4-yl)amino)-3-(2-fluorophenyl)propan-1-ol]: the IC50 under setting [1] was less than 1000 nM.

As for `O=C(O)CN1CCN(c2ncc(-c3ccc4ncc(Cl)c(N[C@@H](c5ccccc5F)C(F)F)c4c3)cn2)CC1` [Example 92, (S)-2-(4-(5-(3-chloro-4-((2,2-difluoro-1-(2-fluorophenyl)ethyl)amino)quinolin-6-yl)pyrimidin-2-yl)piperazin-1-yl)acetic acid], under setting [1], the IC50 is less than 1000 nM.

With `Cc1nc2cc(F)c(-c3cnc(N4CCNC(=O)C4)nc3)cc2c(N[C@H](C)c2cc(C(N)=O)ccc2F)c1Cl` [Example 448, (R)-3-(1-((3-chloro-7-fluoro-2-methyl-6-(2-(3-oxopiperazin-1-yl)pyrimidin-5-yl)quinolin-4-yl)amino)ethyl)-4-fluorobenzamide], the IC50 under setting [1] is less than 1000 nM.

With `C[C@@H](Nc1c(Cl)cnc2ccc(-c3cnc(C(C)(C)O)nc3)cc12)c1cccc(-n2cccn2)c1` [Example 368, (R)-2-(5-(4-((1-(3-(1H-pyrazol-1-yl)phenyl)ethyl)amino)-3-chloroquinolin-6-yl)pyrimidin-2-yl)propan-2-ol], the IC50 under setting [1] is 10000 to 25000 nM.

Regarding `CCn1cc(-c2ccc(F)c([C@@H](C)Nc3c(Cl)cnc4ccccc34)c2)cn1` [Example 473, (R)-3-chloro-N-(1-(5-(1-ethyl-1H-pyrazol-4-yl)-2-fluorophenyl)ethyl)quinolin-4-amine], the IC50 under setting [1] is less than 1000 nM.

In the case of `C[C@@H](Nc1c(Cl)cnc2ccc(-c3cnc(NC4(C(N)=O)CC4)nc3)cc12)c1ccccc1F` [Example 587, (R)-1-((5-(3-chloro-4-((1-(2-fluorophenyl)ethyl)amino)quinolin-6-yl)pyrimidin-2-yl)amino)cyclopropane-1-carboxamide], the IC50 under setting [1] is less than 1000 nM.

With `C[C@@H](Nc1c(Cl)cnc2ccc(-c3cnc(N4CCN(CC(=O)NS(C)(=O)=O)CC4)nc3)cc12)c1ccccc1F` [Example 91, (R)-2-(4-(5-(3-chloro-4-((1-(2-fluorophenyl)ethyl)amino)quinolin-6-yl)pyrimidin-2-yl)piperazin-1-yl)-N-(methylsulfonyl)acetamide], the IC50 under setting [1] is less than 1000 nM.

The values above are taken from US10865191B2, “Heterocyclic compounds useful as modulators of TNF alpha” (BRISTOL-MYERS SQUIBB COMPANY, priority 2015, dated 2020).
